Experimental findings from ChEMBL document CHEMBL4418305, “Alkyl-, acyl-, urea-, and aza-uracil sulfide:quinone oxidoreductase inhibitors” (2017) are described below.

Experiment [1] has as its target T1, Sulfide:quinone oxidoreductase, mitochondrial (Homo sapiens, UniProt Q9Y6N5). Description: Inhibition of SQOR (unknown origin) at 10 uM using sodium sulfide, sodium sulfite and coenzyme Q1 by UV absorbance method relative to control.
Target sequence in this assay (Q9Y6N5 whole entry, looked up): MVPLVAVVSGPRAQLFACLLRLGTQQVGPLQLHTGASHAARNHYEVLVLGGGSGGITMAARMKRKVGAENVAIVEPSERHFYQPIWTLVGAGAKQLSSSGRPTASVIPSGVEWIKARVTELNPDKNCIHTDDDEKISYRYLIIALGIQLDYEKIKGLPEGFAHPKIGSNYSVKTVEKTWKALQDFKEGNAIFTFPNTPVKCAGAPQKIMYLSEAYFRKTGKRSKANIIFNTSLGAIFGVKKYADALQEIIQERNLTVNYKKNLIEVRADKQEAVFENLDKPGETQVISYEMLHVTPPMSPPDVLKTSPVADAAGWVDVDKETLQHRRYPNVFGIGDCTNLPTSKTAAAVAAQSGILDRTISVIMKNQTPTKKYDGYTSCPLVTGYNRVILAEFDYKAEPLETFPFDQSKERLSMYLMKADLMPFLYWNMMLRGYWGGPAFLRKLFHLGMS
Experiment [2] addresses T1, Sulfide:quinone oxidoreductase, mitochondrial. Description: Inhibition of SQOR (unknown origin) using sodium sulfide, sodium sulfite and coenzyme Q1 by UV absorbance method.
Target sequence in this assay (Q9Y6N5 whole entry): as the sequence (Q9Y6N5 whole entry, looked up) above

What is called inhibition is the change of the read-out against control, counted positive when it falls. For orientation: IC50 means the point on the concentration scale where inhibition reaches its midpoint. Lower therefore signals inhibition by little substance. Compound `CCCCCCCn1cc(F)c(=O)n(CCCCCCC)c1=O` came in with an inhibition in experiment [1] above 50%. Besides, the IC50 in experiment [2] was below 20 µM.

In the case of `CCCCCCCCn1c(C)c(F)c(=O)n(CCCCCCCC)c1=O`, the inhibition in experiment [1] was 10 to 50%. Also, in experiment [2], the IC50 was below 20 µM.

On to `CCCCCCCCNC(=O)n1cc(F)c(=O)[nH]c1=O`, for which the inhibition in experiment [1] was in the range of 10 to 50%. In experiment [2], this compound displayed an IC50 below 20 µM. For the compound `CC(C)C(=O)n1nc(Br)c(=O)[nH]c1=O`, the inhibition in experiment [1] was 10 to 50%. As for `CCCCCn1c(C)c(F)c(=O)n(CCCCC)c1=O`, in experiment [1], the inhibition is above 50%. The same compound returned an IC50 in experiment [2] below 20 µM. The like results for `O=C(CC1CCCCC1)n1nc(Br)c(=O)[nH]c1=O` were, in that order, above 50% and below 20 µM. The like results for `CCCCCCCC(=O)n1nc(Br)c(=O)[nH]c1=O` were, in that order, above 50% and below 20 µM. `CCCCCCCC(=O)n1c(C)c(Br)c(=O)[nH]c1=O`: the inhibition in experiment [1] was 10 to 50%. The IC50 in experiment [2] is below 20 µM.

Consider `CCCCCCCC(=O)n1c(I)cc(=O)[nH]c1=O`, for which the inhibition in experiment [1] lay within 10 to 50%. This compound also registered an IC50 in experiment [2] below 20 µM.

The compound `CCCCCCCC(=O)n1cc(Br)c(=O)[nH]c1=O` had an inhibition in experiment [1] of 10 to 50%. In experiment [2], the IC50 fell in the range of 20 to 100 µM.

`CCCCCCCC(=O)n1nc(C)c(=O)[nH]c1=O` showed an inhibition in experiment [1] of 10 to 50%. This compound also showed an IC50 in experiment [2] of 20 to 100 µM. Regarding `CCCCCCCC(=O)n1cc(Cl)c(=O)[nH]c1=O`, the inhibition in experiment [1] lay in the range of 10 to 50%.

In experiment [1], `CC(C)CCCn1cc(F)c(=O)n(CCCC(C)C)c1=O` displayed an inhibition of 10 to 50%.

`CCCCCCCCCC(=O)n1nc(Br)c(=O)[nH]c1=O`: the inhibition in experiment [1] is above 50%. Besides, in experiment [2], the IC50 lay within 100 to 500 µM. The compound `CCCCCCC(=O)n1cc(F)c(=O)n(C)c1=O` returned an inhibition in experiment [1] of 10 to 50%. In experiment [1], `CCCCCC(=O)n1nc(Br)c(=O)[nH]c1=O` displayed an inhibition of 10 to 50%. The compound further yielded an IC50 in experiment [2] below 20 µM. `CCCCCCCC(=O)n1cc(F)c(=O)[nH]c1=O` yielded an inhibition in experiment [1] of 3%. Turning to `CCCCCCCC(=O)n1c(Cl)cc(=O)[nH]c1=O`, the inhibition in experiment [1] is 10 to 50%. Also, the IC50 in experiment [2] is below 20 µM. Compound `O=C(NCc1ccccc1)n1cc(F)c(=O)[nH]c1=O` showed an inhibition in experiment [1] of 10 to 50%. Compound `CCCCCCCCn1cc(F)c(=O)n(CCCCCCCC)c1=O` returned an inhibition in experiment [1] of 10 to 50%. This compound also displayed an IC50 in experiment [2] below 20 µM. For the compound `CCCCCCCCCCCCCC(=O)n1nc(Br)c(=O)[nH]c1=O`, the inhibition in experiment [1] is above 50%. Compound `O=c1c(F)cn(CCC2CCCCC2)c(=O)n1CCC1CCCCC1` had an inhibition in experiment [1] of 10 to 50%.

Consider `O=c1c(F)cn(CCc2ccccc2)c(=O)n1CCc1ccccc1`, for which the inhibition in experiment [1] fell in the range of 10 to 50%.

The compound `CCCCCCCCCCCC(=O)n1nc(Br)c(=O)[nH]c1=O` gave an inhibition in experiment [1] above 50%. Same read-out and setting: then `O=C(NCCc1ccccc1)n1cc(F)c(=O)[nH]c1=O`, with 7%. In turn, `CCCCCCn1cc(F)c(=O)n(CCCCCC)c1=O` displayed an inhibition in experiment [1] above 50%. Also, the IC50 in experiment [2] is below 20 µM. For `CCCCCn1c(Cl)cc(=O)n(CCCCC)c1=O`, in experiment [1], the inhibition is 10 to 50%. As for `CCCCCCCCNC(=O)n1cc(Cl)c(=O)[nH]c1=O`, the inhibition in experiment [1] is above 50%. The compound also registered an IC50 in experiment [2] below 20 µM. In the same order, the values of `CCCCCCNC(=O)n1cc(F)c(=O)[nH]c1=O` [CARMOFUR] are 10 to 50% and 20 to 100 µM. `CCCNC(=O)n1cc(F)c(=O)[nH]c1=O` had an inhibition in experiment [1] of 6%.

AUROTHIOGLUCOSE [listing 1 of 2 here] yielded an inhibition in experiment [1] of 95 to 100%. Turning to `CCCCCn1cc(F)c(=O)n(CCCCC)c1=O`, the inhibition in experiment [1] was above 50%. Further, in experiment [2], the IC50 was below 20 µM. The like results for `O=C(CCC1CCCC1)n1nc(Br)c(=O)[nH]c1=O` were, in that order, above 50% and below 20 µM. Regarding `O=C(c1ccccc1)n1nc(Br)c(=O)[nH]c1=O`, the inhibition in experiment [1] lay in the range of 10 to 50%. For orientation: pIC50 means the negative decadic logarithm of the IC50, by convention in mol/L. A lower pIC50 goes with a high IC50. Consider AUROTHIOGLUCOSE [listing 2 of 2 here], for which, in experiment [2], the IC50 lay in the range of 0.925 to 0.93 µM and the pIC50 came out at 6.034.

For the compound `O=C(C1CCCCC1)n1nc(Br)c(=O)[nH]c1=O`, the inhibition in experiment [1] is above 50%. The compound also had an IC50 in experiment [2] below 20 µM.
